For experiment [1], the target named is T1, Ubiquitin carboxyl-terminal hydrolase 1/WD repeat-containing protein 48 (Homo sapiens, UniProt O94782+Q8TAF3). The experiment in a line: Inhibition of human USP1/UAF1 complex using Ub-Rho as substrate by qHTS assay. Type of experiment: protein-complex assay. On the technique in general: In qHTS, concentration-response curves come from the screen itself.

Experiment [2] deals with T2, DNA polymerase kappa (Homo sapiens, UniProt Q9UBT6).
T2 sequence (Q9UBT6 whole entry): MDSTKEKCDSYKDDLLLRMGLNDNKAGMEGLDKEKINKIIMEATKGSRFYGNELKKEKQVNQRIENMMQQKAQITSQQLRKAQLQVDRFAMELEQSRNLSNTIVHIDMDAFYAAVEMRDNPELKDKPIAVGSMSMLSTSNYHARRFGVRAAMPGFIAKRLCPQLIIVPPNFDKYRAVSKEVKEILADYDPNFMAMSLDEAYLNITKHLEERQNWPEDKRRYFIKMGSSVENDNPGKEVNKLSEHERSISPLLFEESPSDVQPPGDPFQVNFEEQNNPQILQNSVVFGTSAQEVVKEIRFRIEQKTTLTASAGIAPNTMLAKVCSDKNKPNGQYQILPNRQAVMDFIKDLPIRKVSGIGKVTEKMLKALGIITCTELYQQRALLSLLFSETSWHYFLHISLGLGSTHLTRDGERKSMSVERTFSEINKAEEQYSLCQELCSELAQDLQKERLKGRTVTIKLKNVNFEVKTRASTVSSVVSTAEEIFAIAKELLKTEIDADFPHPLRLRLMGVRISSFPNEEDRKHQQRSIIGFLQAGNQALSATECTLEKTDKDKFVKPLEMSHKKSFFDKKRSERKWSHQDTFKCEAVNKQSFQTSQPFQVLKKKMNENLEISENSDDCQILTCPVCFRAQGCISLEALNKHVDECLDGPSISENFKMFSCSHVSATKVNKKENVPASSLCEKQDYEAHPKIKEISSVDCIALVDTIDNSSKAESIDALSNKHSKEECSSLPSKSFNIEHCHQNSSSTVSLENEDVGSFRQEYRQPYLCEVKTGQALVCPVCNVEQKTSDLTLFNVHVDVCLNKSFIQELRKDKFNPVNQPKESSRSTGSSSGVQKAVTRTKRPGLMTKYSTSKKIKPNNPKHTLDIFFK
As to the kind of experiment: Inhibition of human DNA polymerase kappa (19 to 526 residues)-mediated TLS past acrolein derived ring-opened reduced form of gamma-HOPdG lesions preincubated for 15 mins followed by DNA substrate addition measured after 30 mins in presence of dCTP and dGTP by radioactive gel-based primer extension assay.

The target of experiment [3] is T1, Ubiquitin carboxyl-terminal hydrolase 1/WD repeat-containing protein 48. As to the kind of experiment: Inhibition of USP1/UAF1 complex in human H596 cells assessed as potentiation of cisplatin-induced cell killing by measuring cisplatin GI50 at 1:4 cisplatin to compound ratio pretreated for 48 hrs followed by addition of fresh growth medium measured after 5 to 10 days by colony forming assay (reference value: 486 nM). In kind it is cell-based.

For experiment [4] the target is unchanged. As to the kind of experiment: Inhibition of USP1/UAF1 complex in HEK293T cells assessed as decrease in ability of DNA polymerase eta to bypass UV-induced DNA lesions after 24 hrs by strand specific PCR-based competitive replication and adduct bypass assay. Type of experiment: cell-based. As to conditions: HEK-293T, concentration not given here.
Experiment [5] concerns the target Ubiquitin carboxyl-terminal hydrolase 1/WD repeat-containing protein 48 (Homo sapiens, UniProt O94782). As to the kind of experiment: Inhibition of human USP1/UAF1 complex using Ub-Rho as substrate preincubated for 30 mins followed by substrate addition by fluorescence-based HTS assay. Type of experiment: protein-complex assay.
The nature of experiment [6]: Growth inhibition of human MDA-MB-231 cells after 72 hrs by MTT assay. Type of experiment: functional. The note with it: MDA-MB-231, 72 h.
Experiment [7] concerns the target T3, DNA polymerase eta (Homo sapiens, UniProt Q9Y253).
T3 sequence (Q9Y253 whole entry): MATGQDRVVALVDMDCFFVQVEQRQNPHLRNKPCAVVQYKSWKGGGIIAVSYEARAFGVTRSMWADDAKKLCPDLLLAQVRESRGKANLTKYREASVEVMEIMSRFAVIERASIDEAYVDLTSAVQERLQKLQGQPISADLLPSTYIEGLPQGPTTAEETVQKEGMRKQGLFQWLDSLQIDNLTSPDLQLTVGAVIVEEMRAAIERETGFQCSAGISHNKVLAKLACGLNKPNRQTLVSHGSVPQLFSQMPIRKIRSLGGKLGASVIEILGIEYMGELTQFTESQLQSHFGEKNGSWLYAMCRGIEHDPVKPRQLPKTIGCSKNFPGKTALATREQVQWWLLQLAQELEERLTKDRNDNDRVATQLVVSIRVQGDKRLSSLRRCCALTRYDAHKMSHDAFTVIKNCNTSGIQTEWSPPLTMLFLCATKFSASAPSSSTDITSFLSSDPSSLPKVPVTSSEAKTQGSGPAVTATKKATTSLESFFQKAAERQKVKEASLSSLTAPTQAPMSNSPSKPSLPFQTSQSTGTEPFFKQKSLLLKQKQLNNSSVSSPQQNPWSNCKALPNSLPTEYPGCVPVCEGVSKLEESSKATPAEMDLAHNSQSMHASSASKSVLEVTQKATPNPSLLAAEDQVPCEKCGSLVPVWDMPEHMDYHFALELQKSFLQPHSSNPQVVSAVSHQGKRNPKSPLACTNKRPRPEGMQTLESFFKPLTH
As to the kind of experiment: Inhibition of human recombinant DNA polymerase eta expressed in Baculovirus expression system using TAMRA/BHQ-2-labeled primer/template measured at 2 to 6 mins by reporter-strand displacement assay.

The target in experiment [8] is T4, DNA polymerase iota (Homo sapiens, UniProt Q9UNA4).
T4 sequence (Q9UNA4 whole entry): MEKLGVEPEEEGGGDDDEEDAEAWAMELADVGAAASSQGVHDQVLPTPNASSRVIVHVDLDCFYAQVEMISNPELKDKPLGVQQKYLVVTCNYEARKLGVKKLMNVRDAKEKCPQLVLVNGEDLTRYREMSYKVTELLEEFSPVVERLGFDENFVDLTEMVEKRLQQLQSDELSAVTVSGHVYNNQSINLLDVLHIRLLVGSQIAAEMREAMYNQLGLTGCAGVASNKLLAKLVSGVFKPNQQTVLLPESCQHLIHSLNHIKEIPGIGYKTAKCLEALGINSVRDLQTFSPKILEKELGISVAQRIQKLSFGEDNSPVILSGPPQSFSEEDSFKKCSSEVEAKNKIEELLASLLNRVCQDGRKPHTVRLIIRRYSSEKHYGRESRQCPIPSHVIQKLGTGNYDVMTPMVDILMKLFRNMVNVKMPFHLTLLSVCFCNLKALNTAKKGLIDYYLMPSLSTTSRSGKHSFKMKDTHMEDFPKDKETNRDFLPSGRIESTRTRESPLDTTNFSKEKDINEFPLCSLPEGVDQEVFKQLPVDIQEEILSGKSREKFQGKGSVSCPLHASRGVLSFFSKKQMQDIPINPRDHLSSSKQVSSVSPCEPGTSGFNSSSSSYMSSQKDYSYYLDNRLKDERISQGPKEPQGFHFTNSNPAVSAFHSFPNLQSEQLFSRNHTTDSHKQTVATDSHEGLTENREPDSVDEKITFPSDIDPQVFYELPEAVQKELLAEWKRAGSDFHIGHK
As to the kind of experiment: Inhibition of human recombinant DNA polymerase iota expressed in Baculovirus expression system using TAMRA/BHQ-2-labeled primer/template measured at 2 to 6 mins by reporter-strand displacement assay.

pIC50: −log10 of the molar value.

T1 sequence (O94782 whole entry): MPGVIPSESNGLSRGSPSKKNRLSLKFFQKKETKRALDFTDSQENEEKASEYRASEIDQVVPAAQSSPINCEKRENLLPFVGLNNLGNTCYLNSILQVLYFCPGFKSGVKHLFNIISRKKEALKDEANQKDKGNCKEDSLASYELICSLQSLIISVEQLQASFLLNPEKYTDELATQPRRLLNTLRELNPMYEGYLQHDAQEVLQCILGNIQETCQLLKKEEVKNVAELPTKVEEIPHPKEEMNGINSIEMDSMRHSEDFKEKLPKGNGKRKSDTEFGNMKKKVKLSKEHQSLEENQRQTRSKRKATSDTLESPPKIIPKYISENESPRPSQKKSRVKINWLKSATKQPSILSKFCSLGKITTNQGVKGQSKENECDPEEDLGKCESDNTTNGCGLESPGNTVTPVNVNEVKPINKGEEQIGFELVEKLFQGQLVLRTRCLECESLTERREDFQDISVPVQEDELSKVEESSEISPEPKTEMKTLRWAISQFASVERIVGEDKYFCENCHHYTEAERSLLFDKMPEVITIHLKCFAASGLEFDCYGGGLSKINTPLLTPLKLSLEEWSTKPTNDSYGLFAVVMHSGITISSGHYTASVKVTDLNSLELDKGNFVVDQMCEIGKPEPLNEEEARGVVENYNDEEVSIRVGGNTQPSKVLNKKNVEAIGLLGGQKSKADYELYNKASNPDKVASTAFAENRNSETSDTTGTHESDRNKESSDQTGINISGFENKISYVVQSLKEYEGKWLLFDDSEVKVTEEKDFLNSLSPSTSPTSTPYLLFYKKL
T1 sequence (Q8TAF3 whole entry): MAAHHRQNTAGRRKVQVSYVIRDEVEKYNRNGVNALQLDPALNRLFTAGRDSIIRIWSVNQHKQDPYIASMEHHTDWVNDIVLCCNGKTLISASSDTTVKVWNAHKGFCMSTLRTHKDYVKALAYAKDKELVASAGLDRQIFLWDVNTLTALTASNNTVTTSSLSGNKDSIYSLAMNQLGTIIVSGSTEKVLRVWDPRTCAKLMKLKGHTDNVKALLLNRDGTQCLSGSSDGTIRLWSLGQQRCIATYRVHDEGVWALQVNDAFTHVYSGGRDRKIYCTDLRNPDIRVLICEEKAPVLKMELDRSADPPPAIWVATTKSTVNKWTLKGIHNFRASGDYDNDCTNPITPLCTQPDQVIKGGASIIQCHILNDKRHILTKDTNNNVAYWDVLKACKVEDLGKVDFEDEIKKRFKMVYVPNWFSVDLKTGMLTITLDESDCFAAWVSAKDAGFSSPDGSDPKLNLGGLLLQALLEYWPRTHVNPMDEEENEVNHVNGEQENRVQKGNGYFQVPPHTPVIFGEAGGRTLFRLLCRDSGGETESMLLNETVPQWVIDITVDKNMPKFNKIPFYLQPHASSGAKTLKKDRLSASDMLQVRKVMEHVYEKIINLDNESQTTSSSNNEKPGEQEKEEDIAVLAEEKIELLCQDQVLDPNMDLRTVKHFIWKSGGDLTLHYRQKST
Sequence of Ubiquitin carboxyl-terminal hydrolase 1/WD repeat-containing protein 48 (Homo sapiens, UniProt O94782) (O94782 whole entry): as the sequence (O94782 whole entry) above
Sequence of Ubiquitin carboxyl-terminal hydrolase 1/WD repeat-containing protein 48 (Homo sapiens, UniProt O94782) (Q8TAF3 whole entry, further chain): as the sequence (Q8TAF3 whole entry) above

Take `O=c1[nH]c2ccccc2n1C1CCN(CCCC(c2ccc(F)cc2)c2ccc(F)cc2)CC1` [PIMOZIDE]: the negative-log IC50 (pIC50) in experiment [1] was 5.70. The same measure, in the same setting: for `CC(=O)c1c(O)c(C)c(O)c(Cc2c(O)c3c(c(C(=O)/C=C/c4ccccc4)c2O)OC(C)(C)C=C3)c1O` [ROTTLERIN] the value was 5.10. `CCOc1nc2cccc(C(=O)OC(C)OC(=O)OC3CCCCC3)c2n1Cc1ccc(-c2ccccc2-c2nnn[nH]2)cc1` (centres undefined) [CANDESARTAN CILEXETIL]: the negative-log IC50 (pIC50) in experiment [2] was 5.25. As to `Cc1cnc(-c2ccccc2C(C)C)nc1NCc1ccc(-n2ccnn2)cc1`, the GI50 in experiment [3] was 59 nM. In experiment [4], the inhibition turned out to be 31%. The compound `O=C1c2ccccc2C(=O)C2OC(c3ccc(F)cc3)=NC12` (centres undefined) had a negative logarithm of the IC50 (pIC50) in experiment [5] of 6.06.

The compound `CN1CCN(CCCN2c3ccccc3Sc3ccc(C(F)(F)F)cc32)CC1` [TRIFLUOPERAZINE] gave a negative logarithm of the IC50 (pIC50) in experiment [1] of 5.10. In experiment [6], `Nc1nc(COC(=O)c2ccc([N+](=O)[O-])cc2)nc(Nc2ccccc2)n1` displayed a concentration for 50% growth inhibition (GI50) of 10000 nM. In turn, `CC(C)(Sc1ccc(CCN(CCCCC2CCCCC2)C(=O)NC2CCCCC2)cc1)C(=O)O` [GW7647] showed a negative-log IC50 (pIC50) in experiment [1] of 5.30.

In the case of `O=c1oc2c(O)c(O)cc3c(=O)oc4c(O)c(O)cc1c4c23` [ELLAGIC ACID], the pIC50 in experiment [7] and in experiment [8] was 7.21 throughout. With `Cc1ccc(Nc2nc(N)nc(COC(=O)c3ccc([N+](=O)[O-])cc3)n2)cc1`, the 50% growth inhibitory concentration (GI50) in experiment [6] was determined as 10000 nM. Turning to `O=C(O)C1=CC(=C(c2ccc(O)c(C(=O)O)c2)c2ccc(O)c(C(=O)O)c2)C=CC1=O` [AURINTRICARBOXYLIC ACID], the negative-log IC50 (pIC50) in experiment [7] and in experiment [8] was 7.12 each time.

The pIC50 is the negative decadic logarithm of the IC50, by convention in mol/L. The GI50 is the concentration at which growth is held to half of that of the control. The inhibition is the percentage by which the read-out fell short of the control.
